Experimental data published in patent US8507714B2, “7-membered ring compound and method of production and pharmaceutical application thereof” (Daiichi Sankyo Company, Limited, priority 2004, dated 2013).

Test system: not given
Details: not given

melting point | SMILES
239 °C (dec.) | N#Cc1ccc(S(=O)(=O)N2CC(=O)NC/C(=C\c3ccccc3)C2=O)cc1
73 to 76 °C | COC(=O)C[C@@H]1C(=O)NC[C@H](Cc2cc(F)ccc2OC)C(=O)N1S(=O)(=O)c1ccc(Cl)cc1
138 to 140 °C | COC(=O)COc1ccc(Cl)cc1CC1CNC(=O)CN(S(=O)(=O)c2ccc(Cl)cc2)C1=O (centres unmarked)
78 to 80 °C | COc1ccc(Cl)cc1C[C@H]1CNC(=O)[C@@H](C)N(S(=O)(=O)c2ccc(Cl)cc2)C1=O
141 to 142 °C | CC[C@@H](NC(=O)N1CC(=O)NCC(Cc2cc(Cl)ccc2OC)C1=O)C(=O)Nc1nnn[nH]1 (some centres unmarked)
150 to 153 °C | COc1ccc(F)cc1/C=C1\CNC(=O)CN(S(=O)(=O)c2ccc(Cl)s2)C1=O
130 to 131 °C | COc1ccc(Cl)cc1CC1CNC(=O)CN(C(=O)Nc2cccc(NC(C)=O)c2)C1=O (centres unmarked)
132 to 134 °C | CC[C@@H](NC(=O)N1CC(=O)NCC(Cc2cc(Cl)ccc2OC)C1=O)C(=O)Nc1ccc(C)c(C(=O)O)c1 (some centres unmarked)
64 to 66 °C | Cc1cccc(CC2CNC(=O)CN(S(=O)(=O)c3ccc(Cl)cc3)C2=O)c1 (centres unmarked)

Continued, compound first:

SMILES | melting point
O=C(CN1CC(Cc2ccccc2)C(=O)N(S(=O)(=O)c2ccc(Cl)cc2)CC1=O)NCc1ccccc1 (centres unmarked) | 187 to 190 °C
COc1cc(Cl)c(F)cc1CC1CNC(=O)CN(S(=O)(=O)c2ccc(Cl)cc2)C1=O (centres unmarked) | 80 to 90 °C
COc1ccc(Cl)cc1CC1CNC(=O)CN(S(=O)(=O)c2ccc(Cl)cc2)C1=O (centres unmarked) [Compound 29, 6-(5-chloro-2-methoxybenzyl)-4-[(4-chlorophenyl)sulfonyl]-1,4-diazepan-2,5-dione] | 110 to 112 °C
CC[C@@H](NC(=O)N1CC(=O)NC[C@@H](Cc2cc(Cl)ccc2OC)C1=O)c1cccc(C(=O)[O-])c1.[Na+] | 161 to 163 °C
CC[C@@H](NC(=O)N1CC(=O)NC[C@@H](Cc2cc(Cl)ccc2OC)C1=O)c1cccc(C(=O)O)c1 [Compound 91, 3-[(1R)-1-({[(6R)-6-(5-chloro-2-methoxybenzyl)-3,7-dioxo-1,4-diazepan-1-yl]carbonyl}amino)propyl]benzoic Acid] | 121 to 123 °C

Test system: DNFB-induced dermatitis in C3H/HeN mice
Details: 10 mg/kg orally once a day; 24 hours after DNFB application at fifth application; female C3H/HeN mice
Procedure: Effect of Test Compounds on Dermatitis Model Induced by Repeated Application of Hapten
As a control group, acetone:olive oil (1:3) was applied by the same protocol. Ear thickness was measured at every week before DNFB application and 24, 48 and 72 hours after DNFB application by using microgauge (Mitutoyo), and ear edema was evaluated by the increase in ear thickness compared to the ear thickness before the first DNFB application. […] The test compound was suspended in 0.5% hydroxypropylcellulose in distilled water (hereinafter referred to as “0.5% HPC-distilled water”) and was administered orally at doses of 2 and 10 mg/kg once a day, every day from just before the first application of hapten to the end of the experiment. Further, as a control, 0.5% HPC-distilled water instead of the test compound was administered by the same methods. The number of mice used in this experiment was seven per group.

SMILES | inhibition rate of the skin reaction [%]
COc1ccc(Cl)cc1CC1CNC(=O)CN(S(=O)(=O)c2ccc(Cl)cc2)C1=O (centres unmarked) [Compound 29, 6-(5-chloro-2-methoxybenzyl)-4-[(4-chlorophenyl)sulfonyl]-1,4-diazepan-2,5-dione] | 31.0
COc1ccc(Cl)cc1CC1CNC(=O)CN(S(=O)(=O)c2ccc(Cl)c(N)c2)C1=O.Cl (centres unmarked) [Compound 90, 4-[(3-amino-4-chlorophenyl)sulfonyl]-6-(5-chloro-2-methoxybenzyl)-1,4-diazepan-2,5-dione Hydrochloride] | 25.1
CC[C@@H](NC(=O)N1CC(=O)NC[C@@H](Cc2cc(Cl)ccc2OC)C1=O)c1cccc(C(=O)O)c1 [Compound 91, 3-[(1R)-1-({[(6R)-6-(5-chloro-2-methoxybenzyl)-3,7-dioxo-1,4-diazepan-1-yl]carbonyl}amino)propyl]benzoic Acid] | 26.1
